# Experimental data from ChEMBL document CHEMBL1201862, “PubChem BioAssay data set” (2004).
#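 A five-concentration, 48-hour dose response in 96-well plates underlies each endpoint, interpolated linearly between surrounding concentrations. Here, GI50 denotes the concentration required for 50% inhibition of growth.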 Calls of active or inactive are those of the source. Cut-off read from the data, not from the text of the source: active = GI50 up to about 1.1 µM and inactive = higher.
# What was measured:
# Experiment in all cases: DTP human tumour cell line panel, 48 h
# A498 = tested on: A498
# LOX IMVI = tested on: LOX IMVI
# UACC-257 = tested on: UACC-257
# SF-539 = tested on: SF-539
# HT-29 = tested on: HT-29
# M14 = tested on: M14
# BT-549 = tested on: BT-549
# T47D = tested on: T47D
# NCI-H460 = tested on: NCI-H460
# SK-OV-3 = tested on: SK-OV-3
# HOP-92 = tested on: HOP-92
# MCF7 = tested on: MCF7
# UO-31 = tested on: UO-31
# NCI-H23 = tested on: NCI-H23
# HCT-116 = tested on: HCT-116
# OVCAR-5 = tested on: OVCAR-5
# 786-0 = tested on: 786-0
# Malme-3M = tested on: Malme-3M
# NCI-H226 = tested on: NCI-H226
# OVCAR-8 = tested on: OVCAR-8
Compound,GI50 (A498),GI50 (LOX IMVI),GI50 (UACC-257),GI50 (SF-539),GI50 (HT-29),GI50 (M14),GI50 (BT-549),GI50 (T47D),GI50 (NCI-H460),GI50 (SK-OV-3),GI50 (HOP-92),GI50 (MCF7),GI50 (UO-31),GI50 (NCI-H23),GI50 (HCT-116),GI50 (OVCAR-5),GI50 (786-0),GI50 (Malme-3M),GI50 (NCI-H226),GI50 (OVCAR-8)
COc1cc2c(/C=C3/C(=O)Nc4ccccc43)c(Cl)n(Cc3ccc(Cl)cc3)c2cc1C,0.733 µM (active),0.344 µM (active),0.378 µM (active),0.27 µM (active),0.296 µM (active),0.296 µM (active),0.382 µM (active),0.52 µM (active),0.359 µM (active),0.305 µM (active),11.8 µM (inactive),0.491 µM (active),0.826 µM (active),0.24 µM (active),0.264 µM (active),0.656 µM (active),0.323 µM (active),0.843 µM (active),0.336 µM (active),0.299 µM (active)
COc1ccc(C(=O)/C=C/c2ccc(O)c(O)c2)c(OC)c1,4.5 µM (inactive),3.58 µM (inactive),3.87 µM (inactive),0.834 µM (active),7.76 µM (inactive),3.99 µM (inactive),3.26 µM (inactive),1.55 µM (inactive),3.04 µM (inactive),5.15 µM (inactive),28.8 µM (inactive),0.301 µM (active),9.33 µM (inactive),2.31 µM (inactive),0.638 µM (active),15.6 µM (inactive),5.21 µM (inactive),4.65 µM (inactive),6.64 µM (inactive),10.8 µM (inactive)
CC(C)(C)NC(=O)/C(=C\Sc1ccccc1)c1ccccc1,> 100 µM (inactive),20.3 µM (inactive),> 100 µM (inactive),> 64 µM (inactive),> 100 µM (inactive),> 100 µM (inactive),> 30.3 µM (inactive),56.1 µM (inactive),> 100 µM (inactive),> 100 µM (inactive),2.54 µM (inactive),> 73.8 µM (inactive),> 100 µM (inactive),> 41.7 µM (inactive),> 65.6 µM (inactive),> 100 µM (inactive),> 100 µM (inactive),> 100 µM (inactive),> 72.1 µM (inactive),> 60 µM (inactive)
CCc1nc(N)nc(N)c1-c1ccc(NCCc2ccccc2)c([N+](=O)[O-])c1,3.05 µM (inactive),0.199 µM (active),1.77 µM (inactive),0.741 µM (active),0.195 µM (active),0.276 µM (active),4.62 µM (inactive),4.51 µM (inactive),0.0687 µM (active),16.5 µM (inactive),2.21 µM (inactive),1.13 µM (inactive),1.86 µM (inactive),0.392 µM (active),0.0649 µM (active),17.2 µM (inactive),0.211 µM (active),2.38 µM (inactive),6.05 µM (inactive),0.394 µM (active)
CCOC(=O)C(NC(=O)CC)(N1CCN(c2cc3c(cc2F)c(=O)c(C(=O)O)cn3C2CC2)CC1)C(F)(F)F (stereo not given),> 100 µM (inactive),> 100 µM (inactive),> 100 µM (inactive),> 100 µM (inactive),> 100 µM (inactive),> 100 µM (inactive),> 100 µM (inactive),> 100 µM (inactive),> 100 µM (inactive),> 100 µM (inactive),70.8 µM (inactive),> 100 µM (inactive),> 100 µM (inactive),> 100 µM (inactive),> 100 µM (inactive),> 100 µM (inactive),> 100 µM (inactive),> 100 µM (inactive),> 100 µM (inactive),> 100 µM (inactive)
CC1CC[C@@]2(OC1)OC1C[C@H]3[C@@H]4CC[C@H]5CC(OC6OC(CO)C(O)C(OC7OC(CO)C(OC8OC(CO)C(O)C(OC9OC(CO)C(O)C(O)C9O)C8OC8OC(CO)C(O)C(O)C8O)C(O)C7O)C6O)[C@H](O)CC5(C)[C@H]4CCC3(C)C1[C@@H]2C (stereo not given in full),1.06 µM (active),2.29 µM (inactive),8.75 µM (inactive),1.87 µM (inactive),3.52 µM (inactive),9.04 µM (inactive),4.37 µM (inactive),1.37 µM (inactive),7.06 µM (inactive),6.95 µM (inactive),4.88 µM (inactive),1.66 µM (inactive),2 µM (inactive),5.31 µM (inactive),5.14 µM (inactive),5.33 µM (inactive),1.88 µM (inactive),8.18 µM (inactive),6.53 µM (inactive),1.7 µM (inactive)
CCOc1cc(NC(C)=O)ccc1C(=O)NN1C(=O)CSC1c1ccc(O)c(OC)c1 (stereo not given),> 100 µM (inactive),87.3 µM (inactive),48.4 µM (inactive),> 100 µM (inactive),73.6 µM (inactive),50.4 µM (inactive),28 µM (inactive),32.4 µM (inactive),43.5 µM (inactive),93.5 µM (inactive),59.7 µM (inactive),44.7 µM (inactive),10.8 µM (inactive),61.7 µM (inactive),60.1 µM (inactive),> 100 µM (inactive),> 100 µM (inactive),46.8 µM (inactive),69.5 µM (inactive),23.9 µM (inactive)
CCOC(=O)c1c(CN2CCCC2)n(-c2ccccc2)c2cc(Br)c(OC)cc12,4.78 µM (inactive),13.8 µM (inactive),13.2 µM (inactive),23.6 µM (inactive),7.57 µM (inactive),16.3 µM (inactive),18.7 µM (inactive),14.5 µM (inactive),6.89 µM (inactive),25.5 µM (inactive),10.6 µM (inactive),6.87 µM (inactive),11.5 µM (inactive),20.5 µM (inactive),11.2 µM (inactive),19.5 µM (inactive),15 µM (inactive),16.7 µM (inactive),13.3 µM (inactive),29.2 µM (inactive)
COC(=O)c1cc(C#N)[nH]c1-c1ccc(Br)s1,1.03 µM (active),9.14 µM (inactive),9.4 µM (inactive),12.8 µM (inactive),12.4 µM (inactive),9.73 µM (inactive),10.9 µM (inactive),1.17 µM (inactive),17.6 µM (inactive),11.6 µM (inactive),4.1 µM (inactive),0.459 µM (active),5.7 µM (inactive),5.08 µM (inactive),13.5 µM (inactive),11.2 µM (inactive),14.5 µM (inactive),7.14 µM (inactive),8.55 µM (inactive),12.8 µM (inactive)
COc1cc(/C=C/C(=O)C2(C(=O)/C=C/c3cc(OC)c(OC)c(OC)c3)CCCCC2)cc(OC)c1OC,> 100 µM (inactive),38.7 µM (inactive),76.9 µM (inactive),19 µM (inactive),35.7 µM (inactive),29.9 µM (inactive),29.6 µM (inactive),76.2 µM (inactive),80.7 µM (inactive),68.9 µM (inactive),1.22 µM (inactive),27.6 µM (inactive),60.7 µM (inactive),53.3 µM (inactive),31.1 µM (inactive),94.2 µM (inactive),43.2 µM (inactive),37.6 µM (inactive),32.7 µM (inactive),24.1 µM (inactive)
